Measurements from patent publication US5314887A, “2-amino-1, 4-dihydropyridine derivatives with calcium agonist and alpha -antagonist activity” (The Du Pont Merck Pharmaceutical Company, priority 1992, dated 1994).

Tests used:
guinea pig left atria = assay: Positive inotropic effect in guinea pig left atria; details: Cavia porcellus; for EC50: left atria paced at 2 Hz, Krebs bicarbonate, 37°, cumulative addition to maximum 10^-4, read-out: EC50 = concentration that increases DT (developed tension) by 50% above the control DT; for Emax: relative to Bay K8644, expressed in percent, read-out: Intrinsic Activity: ratio of the maximum effect of the test compound to that of Bay K8644
Method: Guinea pigs are killed by cervical dislocation. The left atria are removed and mounted at 1 gm resting tension in tissue baths containing oxygenated Krebs bicarbonate solution which is kept at 37°. The left atria are electrically paced at 2 Hz with square wave pulses of 1 msec duration. The voltage is set at 1.5×threshold level.
After a one hour equilibration period, control values for developed tension (DT, gm) are recorded. Test compounds are then added to the baths, in a cumulative manner to a maximum concentration of 10^-4, to obtain a concentration-response curve. Treatment values of DT are obtained after the drug effect has reached a plateau and the exposure time for each concentration is 5-8 minutes. Percent change of the treatment value from the control value is calculated at each concentration of the test compound.
^a EC50 (M) = concentration that increases DT by 50% above the
^b Intrinsic Activity is a ratio of the maximum effect of the test
compound to that of Bay K8644 and expressed in percent.

[1] = system: influx of calcium ions into cells; details: background statement; cited from earlier work
[2] = target: alpha1-adrenoceptor (rat brain membranes); assay: [3H]-Prazosin binding assay (affinity for alpha1-adrenoceptors); details: 0.2 nM [3H]-prazosin, partially purified rat brain membranes, Tris buffer, 60 minutes at 25°
Method: The [^3 H]-prazosin binding assay was carried out according to the method described by Timmermans, P. B. M. W. M., Schoop, A. M. C., and Van Zwieten, P. A., Biochem. Pharmacol. 31, 899-905 (1982). The reaction mixture contained partially purified rat brain membranes (source of alpha1 -adrenoceptors), 0.2 nM [^3 H]-prazosin with or without potential displacer in Tris buffer. The mixture was incubated for 60 minutes at 25° and subsequently terminated by rapid filtration through glass fiber-filter. Receptor-bound [^3 H]-prazosin trapped in the filter was quantitated by scintillation counting. The inhibitory concentration (IC50) of potential displacer which gives 50% displacement of the total specifically bound [^3 H]-prazosin is presented as a measure of the affinity of such compound for the alpha1 -adrenoceptor.

[3] = target: T1, Ca^2+ channel (rat cardiac microsomes) (Rattus norvegicus, UniProt P22002); assay: [3H]-Nitrendipine binding assay (affinity for calcium channels); details: 0.5 nM [3H]-nitrendipine, Tris buffer, 60 minutes at 25°
T1 construct: The reaction mixture contained rat cardiac microsomes; from tissue; host or cells: rat heart (cardiac microsomes)
Method: [^3 H]-Nitrendipine binding assay was carried out according to the method described by G. T. Bolger, et al., Biochem. Biophys. Res. Comm. 104, 1604-1609 (1982). The reaction mixture contained rat cardiac microsomes (source of Ca^2+ channels), 0.5 nM [^3 H]-nitrendipinewith or without potential displacer in Tris buffer. The mixture was incubated for 60 minutes at 25° and subsequently terminated by rapid filtration through a glass fiber-filter. Membrane-bound [^3 H]-nitrendipine trapped in the filter was quantitated by scintillation counting. The inhibitory concentration (IC50) of potential displacer which gives 50% displacement of the total specifically bound [^3 H]-nitrendipine is presented as a measure of the affinity of such compound for the Ca^2+ channel.

T1 sequence (P22002 whole entry, other chains not shown): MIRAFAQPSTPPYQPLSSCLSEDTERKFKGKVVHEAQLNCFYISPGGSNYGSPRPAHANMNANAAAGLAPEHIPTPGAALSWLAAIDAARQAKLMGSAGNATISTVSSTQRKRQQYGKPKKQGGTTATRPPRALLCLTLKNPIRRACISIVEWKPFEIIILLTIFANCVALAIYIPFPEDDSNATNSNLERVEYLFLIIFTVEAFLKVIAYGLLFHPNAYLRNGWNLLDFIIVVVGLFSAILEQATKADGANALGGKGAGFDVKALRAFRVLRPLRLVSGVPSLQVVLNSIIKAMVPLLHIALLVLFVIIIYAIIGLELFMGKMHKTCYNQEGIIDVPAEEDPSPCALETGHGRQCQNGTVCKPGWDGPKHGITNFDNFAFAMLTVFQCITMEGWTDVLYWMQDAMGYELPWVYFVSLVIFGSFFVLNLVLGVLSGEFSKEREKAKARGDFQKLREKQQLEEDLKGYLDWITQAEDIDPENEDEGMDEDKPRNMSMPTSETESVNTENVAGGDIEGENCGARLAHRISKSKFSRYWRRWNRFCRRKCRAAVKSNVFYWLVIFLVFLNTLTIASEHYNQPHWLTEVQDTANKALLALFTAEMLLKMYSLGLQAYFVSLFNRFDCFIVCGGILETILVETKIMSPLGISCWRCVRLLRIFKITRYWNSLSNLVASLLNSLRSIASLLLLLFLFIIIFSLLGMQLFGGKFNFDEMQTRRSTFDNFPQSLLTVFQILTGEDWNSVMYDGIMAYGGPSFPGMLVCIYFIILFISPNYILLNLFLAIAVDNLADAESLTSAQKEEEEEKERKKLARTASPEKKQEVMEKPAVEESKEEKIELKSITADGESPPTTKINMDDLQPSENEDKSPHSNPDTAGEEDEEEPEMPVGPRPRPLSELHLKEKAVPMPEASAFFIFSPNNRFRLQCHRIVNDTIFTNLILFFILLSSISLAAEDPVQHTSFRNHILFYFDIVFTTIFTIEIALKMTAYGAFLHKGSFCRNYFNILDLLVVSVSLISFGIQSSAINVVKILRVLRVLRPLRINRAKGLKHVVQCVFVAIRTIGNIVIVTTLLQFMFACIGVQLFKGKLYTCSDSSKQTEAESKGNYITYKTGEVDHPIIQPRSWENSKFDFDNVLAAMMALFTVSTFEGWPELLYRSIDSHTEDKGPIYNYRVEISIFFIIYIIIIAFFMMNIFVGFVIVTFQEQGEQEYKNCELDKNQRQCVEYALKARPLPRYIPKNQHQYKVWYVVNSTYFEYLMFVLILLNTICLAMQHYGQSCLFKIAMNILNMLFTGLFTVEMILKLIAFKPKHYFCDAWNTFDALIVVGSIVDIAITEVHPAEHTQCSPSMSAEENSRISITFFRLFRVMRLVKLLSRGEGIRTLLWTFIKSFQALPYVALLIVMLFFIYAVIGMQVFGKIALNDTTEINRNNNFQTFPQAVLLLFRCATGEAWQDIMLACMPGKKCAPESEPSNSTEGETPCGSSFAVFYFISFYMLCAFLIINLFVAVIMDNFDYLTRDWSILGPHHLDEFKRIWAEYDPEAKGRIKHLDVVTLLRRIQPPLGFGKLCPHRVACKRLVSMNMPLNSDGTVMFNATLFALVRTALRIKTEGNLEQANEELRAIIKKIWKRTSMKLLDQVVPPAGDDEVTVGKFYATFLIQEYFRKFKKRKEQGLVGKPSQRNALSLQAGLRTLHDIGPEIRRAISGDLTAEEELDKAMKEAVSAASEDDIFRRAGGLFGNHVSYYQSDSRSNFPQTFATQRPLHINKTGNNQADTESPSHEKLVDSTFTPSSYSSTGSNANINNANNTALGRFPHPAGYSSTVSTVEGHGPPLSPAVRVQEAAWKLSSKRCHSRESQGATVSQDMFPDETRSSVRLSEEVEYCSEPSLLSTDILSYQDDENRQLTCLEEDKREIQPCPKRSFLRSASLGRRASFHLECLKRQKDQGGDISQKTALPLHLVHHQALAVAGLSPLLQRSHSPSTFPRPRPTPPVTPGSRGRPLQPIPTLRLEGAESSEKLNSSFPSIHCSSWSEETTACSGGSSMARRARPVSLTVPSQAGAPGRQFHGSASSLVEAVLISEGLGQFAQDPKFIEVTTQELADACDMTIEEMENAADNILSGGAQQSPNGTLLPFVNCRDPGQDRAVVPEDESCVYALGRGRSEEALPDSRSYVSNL
T1 sequence (P54290 25-944 partner limits assumed, other chains not shown): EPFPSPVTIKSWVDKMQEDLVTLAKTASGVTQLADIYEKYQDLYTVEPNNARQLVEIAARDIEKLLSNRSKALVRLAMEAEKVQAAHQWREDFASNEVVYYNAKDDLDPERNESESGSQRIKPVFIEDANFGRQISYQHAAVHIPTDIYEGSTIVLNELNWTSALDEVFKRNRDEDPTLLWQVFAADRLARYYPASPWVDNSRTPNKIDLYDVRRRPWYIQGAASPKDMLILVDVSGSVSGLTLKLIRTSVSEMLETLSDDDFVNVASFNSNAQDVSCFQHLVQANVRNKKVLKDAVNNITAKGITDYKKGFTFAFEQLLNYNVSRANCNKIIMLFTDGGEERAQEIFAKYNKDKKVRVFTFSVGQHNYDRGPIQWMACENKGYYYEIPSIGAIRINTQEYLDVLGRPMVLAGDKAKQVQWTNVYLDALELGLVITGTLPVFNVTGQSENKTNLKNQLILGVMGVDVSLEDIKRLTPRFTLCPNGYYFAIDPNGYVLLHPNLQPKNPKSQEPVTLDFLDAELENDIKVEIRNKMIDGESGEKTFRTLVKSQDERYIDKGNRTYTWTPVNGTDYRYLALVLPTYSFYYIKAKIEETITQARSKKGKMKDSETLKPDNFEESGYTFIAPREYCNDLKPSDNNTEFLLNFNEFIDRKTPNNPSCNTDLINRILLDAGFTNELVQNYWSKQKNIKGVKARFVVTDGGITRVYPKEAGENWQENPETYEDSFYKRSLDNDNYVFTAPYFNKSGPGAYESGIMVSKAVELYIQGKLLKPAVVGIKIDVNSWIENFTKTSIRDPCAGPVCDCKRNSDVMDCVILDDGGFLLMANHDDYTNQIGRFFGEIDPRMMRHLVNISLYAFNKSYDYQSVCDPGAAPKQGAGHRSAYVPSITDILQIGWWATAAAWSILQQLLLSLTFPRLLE
T1 sequence (P54290 945-1091 partner limits assumed, other chains not shown): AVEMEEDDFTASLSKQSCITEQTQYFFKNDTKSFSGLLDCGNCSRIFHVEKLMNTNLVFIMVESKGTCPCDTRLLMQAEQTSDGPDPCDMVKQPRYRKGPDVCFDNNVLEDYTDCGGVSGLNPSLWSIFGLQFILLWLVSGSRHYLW

SMILES	EC50 (guinea pig left atria)	IC50 [2]	IC50 [3]	Emax (guinea pig left atria)	coronary vasoconstricting properties [1]	effect on calcium influx, inotropic and vasoconstrictor effects [1]	potency as a calcium agonist relative to CGP 28392 [1]
COC(=O)C1=C(C)NC(C)=C([N+](=O)[O-])C1c1ccccc1C(F)(F)F (stereo not shown) [Bay K8644]	150 nM			100%	coronary vasoconstricting properties	promote an influx of calcium ions into cells, thereby producing positive inotropic and vasoconstrictor effects	more than ten times as potent as CGP 28392
CCOC(=O)C1=C(C)NC2=C(C(=O)OC2)C1c1ccccc1OC(F)F (stereo not shown) [CGP 28392]						promote an influx of calcium ions into cells, thereby producing positive inotropic and vasoconstrictor effects	
COC(=O)C1=C(N)NC(C)=C([N+](=O)[O-])C1c1ccccc1SCCCCN1CCN(c2ccccc2OC)CC1 (stereo not shown) [Example 1, 2-Amino-1,4-dihydro-4-(2-{4-[4-(2-methoxyphenyl)-1-piperazinyl]-butylthio}phenyl)-6-methyl-5-nitro-3-pyridinecarboxylic acid methyl ester]	550 nM	60 nM	520 nM	166%			
COC(=O)C1=C(N)NC(C)=C([N+](=O)[O-])C1c1ccccc1[S+]([O-])CCCCN1CCN(c2ccccc2OC)CC1 (stereo not shown) [Example 2, 2-Amino-1,4-dihydro-4-(2-{4-[4-(2-methoxyphenyl)-1-piperazinyl]-butylsulfinyl}phenyl)-6-methyl-5-nitro-3-pyridinecarboxylic acid methyl ester]	5700 nM	11 nM	1700 nM	90%			
COC(=O)C1=C(N)NC(C)=C([N+](=O)[O-])C1c1ccccc1OCCCCCN1CCN(c2ncccn2)CC1 (stereo not shown) [Example 3, 2-Amino-1,4-dihydro-4-(2-{5-[4-(2-pyrimidinyl)-1-piperazinyl]-pentyloxy}phenyl)-6-methyl-5-nitro-3-pyridinecarboxylic acid methyl ester]	1000 nM	160 nM	930 nM	170%			
COC(=O)C1=C(N)NC(C)=C([N+](=O)[O-])C1c1ccccc1OCCCCCN1CCN(c2ccccc2OC)CC1 (stereo not shown) [Example 4, 2-Amino-1,4-dihydro-4-(2-{5-[4-(2-methoxyphenyl)-1-piperazinyl]-pentyloxy}phenyl)-6-methyl-5-nitro-3-pyridinecarboxylic acid methyl ester]	1600 nM	3400 nM	1600 nM	128%			
COC(=O)C1=C(N)NC(C)=C([N+](=O)[O-])C1c1ccccc1S(=O)(=O)CCCCN1CCN(c2ccccc2OC)CC1 (stereo not shown) [Example 5, 2-Amino-1,4-dihydro-4-(2-{4-[4-(2-methoxyphenyl)-1-piperazinyl]-butylsulfonyl}phenyl)-6-methyl-5-nitro-3-pyridinecarboxylic acid methyl ester]	1500 nM	60 nM	390 nM	119%			
COC(=O)C1=C(N)NC(C)=C([N+](=O)[O-])C1c1ccccc1[S+]([O-])CCCCN1CCN(c2ncccn2)CC1 (stereo not shown) [Example 8, 2-Amino-1,4-dihydro-4-(2-{4-[4-(2-pyrimidinyl)-1-piperazinyl]-butylsulfinyl}phenyl)-6-methyl-5-nitro-3-pyridinecarboxylic acid methyl ester]	500 nM	2400 nM	2300 nM	254%			
COC(=O)C1=C(N)NC(C)=C([N+](=O)[O-])C1c1ccccc1[S+]([O-])CCCCN1CCC(C(=O)c2ccc(F)cc2)CC1 (stereo not shown) [Example 9]	10000 nM	150 nM	2400 nM	56%			
COC(=O)C1=C(N)NC(C)=C([N+](=O)[O-])C1c1ccccc1SCCCN1CCN(c2ccccc2OC)CC1 (stereo not shown) [Example 10]	3500 nM	80 nM	300 nM	115%			

Continued, in another order:

EC50 (guinea pig left atria)	IC50 [2]	IC50 [3]	SMILES	Emax (guinea pig left atria)	coronary vasoconstricting properties [1]	effect on calcium influx, inotropic and vasoconstrictor effects [1]	potency as a calcium agonist relative to CGP 28392 [1]
47 nM	4500 nM	400 nM	COC(=O)C1=C(N)NC(C)=C([N+](=O)[O-])C1c1ccccc1SCCCCN1CCN(c2ncccn2)CC1 (stereo not shown) [Example 6]	113%			
9600 nM	150 nM	150 nM	COC(=O)C1=C(N)NC(C)=C([N+](=O)[O-])C1c1ccccc1SCCCCN1CCC(C(=O)c2ccc(F)cc2)CC1 (stereo not shown) [Example 7]	112%			
2400 nM	42 nM	240 nM	COC(=O)C1=C(N)NC(C)=C([N+](=O)[O-])C1c1ccccc1SCCCCCN1CCN(c2ccccc2OC)CC1 (stereo not shown) [Example 11]	112%			
> 100000 nM	52 nM	620 nM	COC(=O)C1=C(N)NC(C)=C([N+](=O)[O-])C1c1ccccc1[S+]([O-])CCCN1CCN(c2ccccc2OC)CC1 (stereo not shown) [Example 12]	35%			
5200 nM	25 nM	1300 nM	COC(=O)C1=C(N)NC(C)=C([N+](=O)[O-])C1c1ccccc1[S+]([O-])CCCCCN1CCN(c2ccccc2OC)CC1 (stereo not shown) [Example 13]	119%			
